test: gradient 5% acetonitrile 3 min, to 50% in 2 min, to 85% in 15 min, held 3 min, 100 µL/min; details: column: Zorbax Extend-C18 2.1 x 50 mm; eluents: water / acetonitrile, 0.1% formic acid
Procedure, shortened: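 Retention times of pure standards were taken from adduct peaks that were selected by computer and manually inspected. Over 3 months, mixtures of ~100 molecules were run by HPLC–quadrupole time-of-flight mass spectrometry in positive and negative ionization mode. The Zorbax Extend-C18 column (2.1 × 50 mm, 1.8 μm) ran at 100 μL/min in water and acetonitrile, each containing 0.1% formic acid, with 40 μL dead volume and 900 μL dwell volume.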

SMILES	RP-LC retention time
Cc1sc(C)c(S(=O)(=O)Nc2cccc(Cl)c2)c1-c1cc(C(F)(F)F)on1	1190 s
CCOC(=O)c1cnc(Nc2nc(-c3ccccc3)c3ccccc3n2)nc1C	876 s
Cc1nnc(C2CCCCCN2C(=O)c2cn[nH]c2)o1 (stereo not drawn)	597 s
C[n+]1ccc(Nc2ccc(NC(=O)c3ccc(Nc4cc[n+](C)c5ccc([N+](=O)[O-])cc45)cc3[N+](=O)[O-])cc2)cc1	1080 s
CCC(=O)N1CCc2sc(C(=O)N3CCN(c4ccccc4)CC3)cc2C1	794 s
O=C(Cn1c2c(c(=O)n(C3CCCCC3)c1=O)CCC2)NCc1ccc2c(c1)OCO2	799 s
COC(=O)c1ccc2c(=O)n(-c3cc(F)cc(F)c3)c(N3CCCCC3)nc2c1	1180 s
CS(=O)(=O)N1CCCC(C(=O)Nc2ccc(Cl)cc2C(=O)c2ccccc2)C1 (stereo not drawn)	869 s
COc1ccc(Cc2nc(Cn3ccnc3)no2)cc1OC	592 s
Cc1cc(C)n(Cc2nc(-c3ccc(NC(=O)C4CCCO4)cc3)oc2C)n1 (stereo not drawn)	795 s
COc1ccc(C)cc1NC(=O)N1CCc2nc[nH]c2C1	592 s
Cc1cc(C)c(NS(=O)(=O)c2cc(-c3nc(C)c(C)s3)sc2C)c(C)c1	1260 s
CN(C)c1ccc(/C=C2\Cc3ccccc3C2=O)cc1Br	1170 s
O=C(Nc1ccc2cn[nH]c2c1)C1c2ccccc2Oc2ccccc21	795 s
Cc1ccc(-c2nc(C)cc(OCC(=O)Nc3c(C)cc(C)cc3C)n2)cc1	1130 s
COc1cc(C(=O)Nc2sc3c(c2C(N)=O)CCC(C)C3)cc(OC)c1OC (stereo not drawn)	1010 s
Cc1ccc(-c2noc(Cn3ccn(-c4cc(C)cc(C)c4)c(=O)c3=O)n2)cc1	612 s
CN(C)c1cc(-n2cccn2)ncn1	666 s
COc1ccc(Cl)cc1NC(=O)C1CCN(S(=O)(=O)c2cc(C(=O)N(C)C)cs2)CC1	889 s
CC(C)NC(=O)c1cn2c(n1)CCCC2	545 s

SMILES	RP-LC retention time
Cc1cc(C)cc(Oc2nccn3c(=O)n(CC(=O)Nc4ccccc4Cl)nc23)c1	963 s
COc1ccc(-c2nnc(SCc3ccc(Br)cc3)o2)c(OC)c1	1120 s
CCC(C)NS(=O)(=O)c1cc(-c2nc(C)cs2)n(CC(=O)N2CCCCC2)c1 (stereo not drawn)	920 s
Cc1ccc(Nc2c(-c3ccc(N4CCOCC4)cc3)nc3ccccn23)cc1	682 s
Cc1ccc2nc(SCC(=O)N3CCCCC3)[nH]c2c1	590 s
NC(=O)COC1CCC12CCN(C(=O)C1CCCC1)CC2 (stereo not drawn)	693 s
Cc1nn(C(C)C(=O)N2CCOCC2)c(=O)c2nn(-c3ccccc3)c(C)c12 (stereo not drawn)	684 s
Cc1ccccc1C(=O)Nc1nc(-c2ccc3c(c2)NC(=O)C(C)O3)c(C)s1 (stereo not drawn)	797 s
Cc1ccc(NS(=O)(=O)c2c(C)nc3sc4cc(C)ccc4n3c2=O)cc1	1160 s
Cc1ccccc1Nc1c(-c2c(F)cccc2Cl)nc2ccc(Cl)cn12	984 s
COc1ccc(NC(=O)CSc2nccc(N3CCN(c4cc(C)ccc4C)CC3)n2)cc1Cl	936 s
Cc1ccc(C)c(Sc2cc(N3CCC(C(=O)N4CCC(C(N)=O)CC4)CC3)ncn2)c1	652 s
CCOC(=O)N1CCN(C(=O)c2cccc(-n3cnnn3)c2)CC1	619 s
COc1cc(Cl)c(CC(=O)c2c[nH]c3ccccc23)cc1OC	883 s
CC(C(=O)N1CCN(c2ncccn2)CC1)n1c2ccccc2c2cnn(C)c(=O)c21 (stereo not drawn)	794 s
CN(C)C(=O)c1ccc2c(c1)nc(CN(C)C(=O)Nc1ccc(Br)cc1F)n2C	637 s
COc1cc(C(=O)N2CCC(CC(=O)NC3CC3)CC2)cc(OC)c1OC	647 s
Cc1sc(NC(=O)c2ccncc2)nc1-c1ccc2c(c1)NC(=O)C(C)O2 (stereo not drawn)	714 s
O=C(Cc1cccn1-c1ccc(Cl)cc1)NC1CCCC1	945 s
CC1CCC(C(=O)Nc2ccc3c(c2)n(C)c(=O)c(=O)n3C)CC1 (stereo not drawn)	737 s

SMILES	RP-LC retention time
Cc1cccc(NC(=O)Cn2ccc3ccc(-c4nnc(C)o4)cc32)n1	700 s
CCn1cnc(S(=O)(=O)N2CCC(C(=O)Nc3nc4ccc(C)cc4s3)CC2)c1	812 s
Cc1ccc(NC(=O)c2cccn2Cc2noc(C)n2)cc1	856 s
COCc1nc(C2CCN(C(=O)C3(c4ccccc4)CC3)C2)no1 (stereo not drawn)	750 s
Cc1ccc(C)c(NC(=O)Cn2nc3cc(C)nc(N4CCCC4)n3c2=O)c1	785 s
O=C(Nc1ccc(C2=NCCN2)cc1)c1ccc(Cl)c(C(=O)Nc2ccc(C3=NCCN3)cc2)c1	618 s
Cc1ccc(NC(=O)C(=O)c2ccc[nH]2)cc1F	917 s
Cc1ccc(-c2ncc(C(=O)Nc3cccc(Br)c3)c(-c3ccncc3)n2)cc1	1050 s
O=C(CSc1ncnc2nc[nH]c12)Nc1ccccc1C(F)(F)F	618 s
O=C(NCc1ccc2c(c1)OCO2)C1CCN(c2cncnc2N2CCCCC2)CC1	659 s
CC(C)CN1CCCCc2cc(C(N)=O)sc21	829 s
COc1cc2c(cc1OC)C1C(C(=O)N3CCN(c4ccccn4)CC3)c3ccccc3C(=O)N1CC2 (stereo not drawn)	606 s
O=C(CN1CCCCC1c1nc(-c2ccc(F)cc2)no1)NC1CCCCC1 (stereo not drawn)	1150 s
CCOC(=O)c1ccc2[nH]c(-c3ccc(S(=O)(=O)F)cc3)cc(=O)c2c1	858 s
COc1ccc(NC(=O)CN2CCc3[nH]c4ccc(OC)cc4c(=O)c3C2)c(OC)c1	609 s
CC1CCCN(CC2CCN(S(=O)(=O)c3cc(F)cc(F)c3)CC2)C1 (stereo not drawn)	681 s
CCc1nc(-c2cccc(NC(=O)c3cncc(Br)c3)c2)no1	926 s
COc1ccc(Cl)cc1C(=O)N1CCC(c2nc3ccncc3n2C(C)C)C1 (stereo not drawn)	543 s
COCCNC(=O)C1CCCN(C(=O)c2[nH]c(C)c(C(=O)OC)c2C)C1 (stereo not drawn)	624 s

The next lines start with the values.

RP-LC retention time	SMILES
802 s	COCCCn1cnc2c(-c3ccccc3)cn(CC(=O)NCc3ccco3)c2c1=O
1080 s	Cc1ccc(-c2noc(Cn3c(=O)n(-c4ccc(F)cc4)c(=O)c4sccc43)n2)cc1C
809 s	Cc1ccccc1-n1ccn(Cc2nc(-c3ccccc3)no2)c(=O)c1=O
596 s	CC(C)n1cnc2cc(CNC(=O)c3cccc(C#N)c3)ccc21
766 s	Cc1cccc(CNC(=O)C2(C)Cn3cnc(C(=O)NCc4ccccc4)c3C(=O)N2C2CC2)c1 (stereo not drawn)
944 s	Cc1cccc(Oc2nccn3c(=O)n(CC(=O)NCCCc4ccccc4)nc23)c1C
1200 s	O=C(NCc1ccc(F)cc1F)c1c(O)c2cccnc2n(-c2ccccc2)c1=O
753 s	CCCNC(=O)NCCC1CCN(S(=O)(=O)c2ccccc2)CC1
834 s	Cc1ccc(-n2c(=O)c3c(cc(C)n3C)n(CC(=O)Nc3ccccc3)c2=O)cc1
995 s	CCCS(=O)(=O)N1CCc2ccc(NC(=O)Nc3cc(Cl)ccc3OC)cc2C1
989 s	Nc1c(C(=O)Nc2cc(F)ccc2F)nnn1-c1ccccc1
674 s	Cc1ccc2c(C(=O)NCc3ccccc3Cl)cc(NC(=O)C(C)C)cc2n1
689 s	Cc1ccc2nc(C(=O)NCc3cccc(F)c3)cn2c1
952 s	O=S(=O)(c1ccc2ccccc2c1)N1CCC(c2nc(-c3ccccn3)no2)CC1
750 s	CC1(C(=O)NCc2ccccc2)CN(S(C)(=O)=O)CC(=O)N1c1ccc(F)cc1 (stereo not drawn)
955 s	Cc1ccc(C(=O)NC(C)CCc2ccccc2)cc1NC(=O)C1=CSCCO1 (stereo not drawn)
747 s	COC(=O)C1=CN(c2ccc(C(=O)OC)cc2)c2ccccc2S1(=O)=O
802 s	Cn1nc(C(=O)N2C[C@@H](Oc3ccccc3)C[C@H]2C(=O)NC2CC2)c2ccccc21
908 s	COc1ccccc1N1CCN(c2cc(SCC(=O)NCc3ccccc3Cl)ncn2)CC1
613 s	COc1ccc(C2(C(=O)N3CC(N(Cc4ccncc4)S(C)(=O)=O)C3)CC2)cc1
1050 s	Cc1cc(NC(=O)NC2CCN(c3nc4ccccc4n(C)c3=O)CC2)ccc1Br
808 s	CC1=C(c2ccccc2)S(=O)(=O)N=C1N1CCCN(C(=O)c2ccccc2C)CC1
913 s	CCOc1ccc(NC(=O)Nc2nccn(-c3ccccc3)c2=O)cc1
760 s	O=C(NCCn1c(=O)n(Cc2ccccc2)c2cccnc21)C1CCCC1
770 s	O=C(CCCn1nnc2ccccc2c1=O)Nc1ccccc1Cl
631 s	COCCNc1c(-c2ccc(F)cc2)nc2sc(C(=O)NCc3cccnc3)c(C)n12
929 s	CC(C)Cc1ccc(S(=O)(=O)N2CCC(c3nc4cccnc4n3C)C2)cc1 (stereo not drawn)
811 s	COc1ccc(Cn2nc3ccc(S(=O)(=O)N4CCOCC4)cn3c2=O)cc1F
1010 s	CCCn1c(=O)sc2cc(S(=O)(=O)N3CCC(C(=O)Nc4ccc(C)cc4)CC3)ccc21

Source: the METLIN SMRT retention time set (Domingo-Almenara et al. 2019)
